Measured values as given in patent US8114904B2, “Luminescence quenchers and fluorogenic probes for detection of reactive species” (Versitech Limited & Morningside Ventures Limited, priority 2008, dated 2012).

How the values were obtained:
[1] = test system: Murine J744.1 macrophages; experiment: Cell assay: detection of peroxynitrite in living cells by fluorescent microscopy; format: cell-based; conditions: for fluorescence observed in the absence of stimulants: J744.1 macrophages incubated with 20 μM probe for 1 hr
Experimental: (§1) Murine J744.1 macrophages (ATCC, USA) were used to investigate the potential of Compound 22 (acetate form of Compound 10) for the detection of peroxynitrite in living cells. J744.1 macrophages were cultured in Dulbecco's Modified Eagle's Medium (DMEM) (Gibco) containing 10% heat-inactivated fetal bovine serum (Gibco) supplemented with 100 U/ml of penicillin and 100 μg/ml streptomycin at 37° C., 5% CO2. They were subcultured by scraping and seeded on six-well plates according to manufacture's instruction. The growth medium was changed every two to three days. Cells were grown to confluence prior to experiment. Murine J744.1 macrophages were incubated with Compound 22 (20 μM) for 1 hr and then washed three times with PBS buffer.
as §1, with “12 and 12a” for “22 (acetate form of Compound 10)”, “12 or 12a” for “22”, “buffer. […] The fluorescence was induced after treatment with LPS (lipopolysaccharide, 1 μg/ml) for 4 hrs (FIG. 9D and FIG. 10B).” for “buffer.”

[2] = Detection of peroxynitrite: fluorescence spectra after addition of peroxynitrite; conditions: 10 μM probe, 0.1 M potassium phosphate buffer pH 7.4, measured after 5 minutes, excitation 520 nm
Experimental: Compound 10 obtained in Example 4 was dissolved in DMF to a concentration of 10 mM, and then the solution was diluted to 10μM by 0.1 M potassium phosphate buffer (pH 7.4). Peroxynitrite solution in 0.1 M NaOH was prepared by the method of Keith and Powell (Keith, W. G. & Powell, R. E.; Kinetics of decomposition of peroxynitrous acid; J. Chem. Soc. A, 1969, 1, 90), and its concentration in the stock solutions used was estimated by using an extinction coefficient of 1670 cm^−1 (mol/L)^−1 at 302 nm (Hughes and Nicklin; The chemistry of pernitrites. Part I. Kinetics of decomposition of pernitrious acid; J. Chem. Soc. A, 1968, 2, 450-452). Peroxynitrite stock solution was added into the solution of Compound 10 to provide various final concentrations, like 0, 2, 6, 10, 20, 30, 50 100, and 200 μM. Fluorescence spectra of the solutions were measured after 5 minutes under the same conditions as mentioned above.
Compound 12 obtained in Example 5 was dissolved in DMF to a concentration of 1 mM, and then the solution was diluted to 1 μM by 0.1 M potassium phosphate buffer (pH 7.4). Peroxynitrite solution in 0.1 M NaOH was prepared by the method of Keith and Powell (Keith, W. G. & Powell, R. E.; Kinetics of decomposition of peroxynitrous acid; J. Chem. Soc. A, 1969, 1, 90), and its concentration in the stock solutions used was estimated by using an extinction coefficient of 1670 cm^−1 (mol/L)^−1 at 302 nm (Hughes and Nicklin; The chemistry of pernitrites. Part I. Kinetics of decomposition of pernitrious acid; J. Chem. Soc. A, 1968, 2, 450-452). Peroxynitrite stock solution was added into the solution of Compound 12 to provide various final concentrations, like 0, 1, 2, 3, 4, 5, 6, and 7 μM. Fluorescence spectra of the solutions were measured after 5 minutes under the same conditions as mentioned above.
Compound 30 obtained in Example 7 was dissolved in DMF to a concentration of 10 mM, and then the solution was diluted to 10 μM by 0.1 M potassium phosphate buffer (pH 7.4). Peroxynitrite solution in 0.1 M NaOH was prepared by the method of Keith and Powell (Keith, W. G. & Powell, R. E.; Kinetics of decomposition of peroxynitrous acid; J. Chem. Soc. A, 1969, 1, 90), and its concentration in the stock solutions used was estimated by using an extinction coefficient of 1670 cm^−1 (mol/L)^−1 at 302 nm (Hughes and Nicklin; The chemistry of pernitrites. Part I. Kinetics of decomposition of pernitrious acid; J. Chem. Soc. A, 1968, 2, 450-452). Peroxynitrite stock solution was added into the solution of Compound 30 to provide various final concentrations. Fluorescence spectra of the solutions were measured after 5 minutes under the same conditions as mentioned above.

[3] = Emission spectra of the probe itself; format: physicochemical; conditions: 10 μM, 0.1 M phosphate buffer pH 7.4, excitation 520 nm, Hitachi F7000, 900 V
Experimental: (§2) Compound 10 obtained in Example 4 was dissolved in DMF to a concentration of 10 mM, and then the solution was diluted to 10 μM by 0.1 M phosphate buffer (pH 7.4). The fluorescence spectrum of the 10 μM solution of Compound 10 was measured using a Hitachi F2500 fluorescence spectrometer and the photomultiplier voltage was 700 V. The slit width was 2.5 nm for both excitation and emission. The measurement was carried out at an excitation wavelength of 520 nm. The results shown in FIG. 1 indicate that Compound 10 itself is non-fluorescent.
(§3) Compound 12 obtained in Example 5 was dissolved in DMF to a concentration of 1 mM, and then the solution was diluted to 1 μM by 0.1 M phosphate buffer (pH 7.4). The fluorescence spectrum of the 1 μM solution of Compound 12 was measured using a Hitachi F2500 fluorescence spectrometer and the photomultiplier voltage was 700 V. The slit width was 2.5 nm for both excitation and emission. The measurement was carried out at an excitation wavelength of 515 nm. The results shown in FIG. 4 indicate that Compound 12 itself is non-fluorescent.
as §3, with “Compound 14” for “Compound 12”, “Example 6” for “Example 5”, “FIG. 6” for “FIG. 4”
as §2, with “Compound 30” for “Compound 10”, “Example 7” for “Example 4”, “Hitachi F7000” for “Hitachi F2500”, “was 900” for “was 700”, “nm.” for “nm. The results shown in FIG. 1 indicate that Compound 10 itself is non-fluorescent.”

[4] = UV-visible absorption spectrum; format: physicochemical; conditions: 10 μM solution, pH 7.4 0.1 M phosphate buffer, 0.1% DMF
Experimental: Compound 10 obtained in Example 4 was dissolved in pH 7.4 0.1 M phosphate buffer containing 0.1% DMF as cosolvent to form a 10 μM solution.
Compound 12 obtained in Example 5 was dissolved in pH 7.4 0.1 M phosphate buffer containing 0.1% DMF as cosolvent to form a 1 μM solution.
Compound 14 obtained in Example 6 was dissolved in pH 7.4 0.1 M phosphate buffer containing 0.1% DMF as cosolvent to form a 1 μM solution.
Compound 30 obtained in Example 7 was dissolved in pH 7.4 0.1 M phosphate buffer containing 0.1% DMF as cosolvent to form a 10 μM solution. The absorption spectrum of the 10 μM solution of Compound 30 was measured.

| fluorescence of the probe itself [3] | absorption maximum [4] | SMILES | fluorescence after treatment with LPS ([1]; 20 μM probe 1 hr, LPS 1 μg/ml for 4 hrs) | fluorescence observed in the absence of stimulants [1] | fluorescence after treatment with LPS and IFN-γ ([1]; 20 μM probe 1 hr, LPS 1 μg/ml and IFN-γ 50 ng/ml for 4 hrs) | fluorescence after additional stimulation by PMA ([1]; 20 μM probe 1 hr, LPS and IFN-γ 4 hrs, then PMA 10 nM for half an hour) | suitability for detection of peroxynitrite in stimulated macrophages ([1]; stimulated Murine J744.1 macrophages) | fluorescence intensity after the addition of peroxynitrite [2] |
| --- | --- | --- | --- | --- | --- | --- | --- | --- |
| – | – | CC(=O)Oc1ccc(N(C)c2ccc3c(c2)Oc2cc(OC(C)=O)ccc2C32OC(=O)c3ccccc32)cc1 (stereo not drawn) [Compound 12a] | induced | very weak fluorescence | – | – | – | – |
| – | – | CC(=O)Oc1cc2c(cc1Cl)C1(OC(=O)c3ccccc31)c1cc(Cl)c(N(C)c3ccc(CCC(=O)C(F)(F)F)cc3)cc1O2 (stereo not drawn) [Compound 22] | – | very weak fluorescence | induced | strong fluorescence | suitable for the detection of peroxynitrite | – |
| may be non-fluorescent | about 540 nm | CN(c1ccc(O)cc1)c1ccc2c(ccc3c(-c4ccccc4C(=O)O)c4cc(Cl)c(=O)cc-4oc32)c1 [Compound 30] | – | – | – | – | – | increases significantly |
